# pEC50, pIC50: −log10 of the molar value. Like-named read-outs stand apart in the source and are kept apart here.
# Columns and labels:
# [1] = system: guinea pig; conditions: in vivo; cited from earlier work
# [2] = molecular target: T1, progesterone receptor (Homo sapiens, UniProt P06401); assay: PR transactivation assay, antagonistic activity (PR luciferase reporter); assay type: cell-based
# T1 sequence (P06401 165-933 limits assumed): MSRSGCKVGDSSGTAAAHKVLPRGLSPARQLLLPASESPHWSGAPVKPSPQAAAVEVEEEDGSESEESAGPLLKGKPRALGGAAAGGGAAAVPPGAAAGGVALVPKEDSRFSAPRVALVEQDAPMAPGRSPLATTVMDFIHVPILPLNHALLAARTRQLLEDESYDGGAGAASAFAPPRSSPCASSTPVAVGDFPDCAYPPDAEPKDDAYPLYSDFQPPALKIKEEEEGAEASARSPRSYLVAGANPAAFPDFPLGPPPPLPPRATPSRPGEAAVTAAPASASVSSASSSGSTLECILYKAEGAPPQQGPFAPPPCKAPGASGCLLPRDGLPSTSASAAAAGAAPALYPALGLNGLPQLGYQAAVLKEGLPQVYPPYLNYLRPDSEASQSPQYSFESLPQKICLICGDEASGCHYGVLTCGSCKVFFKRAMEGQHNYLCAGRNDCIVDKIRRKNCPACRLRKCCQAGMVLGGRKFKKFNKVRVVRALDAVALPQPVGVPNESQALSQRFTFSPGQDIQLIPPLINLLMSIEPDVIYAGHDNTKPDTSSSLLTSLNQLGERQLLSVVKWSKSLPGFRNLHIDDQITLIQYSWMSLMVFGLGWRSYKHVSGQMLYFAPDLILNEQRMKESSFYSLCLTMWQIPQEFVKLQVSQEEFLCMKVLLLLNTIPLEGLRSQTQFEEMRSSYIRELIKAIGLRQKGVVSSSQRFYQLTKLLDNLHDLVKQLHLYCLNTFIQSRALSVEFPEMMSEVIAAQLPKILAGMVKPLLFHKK
# Procedure: (§1) Transactivation Assay for Progesterone Agonist and Antagonistic Activity (See Table 1).
# (§2) Experimental: PR transactivation studies was carried out in human breast cancer (T47D) cells, grown in RPMI medium without phenol red and 5% charcoal stripped fetal bovine serum, transiently transfected with PR luciferase reporter (CCS-6043L signal reporter assay kit, Qiagen). The cells were stimulated R5020 as PR agonist and treated in the presence or absence of the tested compounds for 24 hours.
# [3] = molecular target: T2, progesterone receptor (Homo sapiens, UniProt P06401); assay: PR transactivation assay, agonistic activity (PR luciferase reporter); assay type: cell-based; conditions: T47D cells
# T2 sequence (P06401 679-933 limits assumed): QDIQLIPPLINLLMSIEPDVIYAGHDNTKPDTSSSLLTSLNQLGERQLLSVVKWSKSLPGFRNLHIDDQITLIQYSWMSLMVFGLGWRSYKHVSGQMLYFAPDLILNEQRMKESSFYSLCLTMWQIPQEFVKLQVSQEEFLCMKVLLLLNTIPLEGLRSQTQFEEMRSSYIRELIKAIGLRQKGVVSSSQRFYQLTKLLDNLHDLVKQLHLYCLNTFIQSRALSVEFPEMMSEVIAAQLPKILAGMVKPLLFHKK
# Procedure: as §1
# as §2, with “hours. The effect was calculated using dual luciferase assay kit (Promega, WI)) based on RU486 as full antagonist and R5020 as agonist for progesterone receptor.” for “hours.”
# [4] = system: ovariectomized C57BL/6 mice; assay: Gene expression in mammary glands of ovariectomized mice; assay type: in vivo, mouse
# Procedure: (§3) In order to determine the in vivo estrogenic action of EC313 in uterine weight and benign breast development, we have used standard uterine weight bioassay and mammary gland whole mount analysis in ovariectomized mice. […] Five different measurements were obtained from each whole-mount image. Ductal length (millimeters) was measured by drawing and measuring a straight line caliper from the most distal point of the ductal network to the nipple and end buds were identified as large bulbous profiles located at the termini of ducts. […] The reduced estrogenic effect by the treatment of EC313 was further confirmed by the gene expression studies.
# Gene expression in mammary glands of ovariectomized C57BL/6 mice treated with E2, EC313 0.1 and 1.0 mg/kg. Columns are average of relative amount (ΔΔCt) of tested mRNA±SD (n=6) (**P<0.01 vs E2-control, *P<0.001 vs E2-control).
# [5] = system: guinea pig; assay: Guinea pig model (ovulation inhibition, uterine weight, vagina, ovary, classification); assay type: in vivo
# [6] = system: ovariectomized C57BL/6 mice; assay: Mammary gland whole mount analysis in ovariectomized mice; assay type: in vivo, mouse; conditions: 0.1 and 1.0 mg/kg with E2, 4 weeks
# Procedure: as §3
# (§4) Whole mounts of mammary glands of overictomized C57BL/6 mice treated with E2, EC313 0.1 and 1.0 mg/kg. Magnification—upper panel—10×, lower panel—20×. B, Uterine weight of mice treated for 4 weeks with E2, EC313 0.1 and 1.0 mg/kg. Data represented are average uterine weight in milligrams±SD (*P<0.001 vs E2-control). C-D, Total duct length and terminal end bud counts in the mammary gland whole mounts after 4 weeks of the treatment with test compounds (*P<0.001 vs E2-control).
# [7] = system: ovariectomized C57BL/6 mice; assay: Uterine weight bioassay in ovariectomized mice; assay type: in vivo, mouse; conditions: combined with E2, 4 weeks
# Procedure: as §3, §4
# [8] = system: estradiol-primed immature female rabbits; assay: McPhail and anti-McPhail tests in rabbits; assay type: in vivo, rabbit
# Excerpt: The McPhail test in the immature female rabbit is a well-established model to test progestatational and antiprogestational activity [McPhail 1934).
compound,measurement,setting,value
C[C@]12C[C@H](c3ccc(-c4ccoc4)cc3)C3=C4CCC(=O)C=C4CCC3C1CCC21OCCC1=C(F)F (some centres unmarked) [EC-313],"Classification (previous findings, Nickisch et al, 2013)",[1],mesoprogestin
same,Ratio of IC50's,[2]; PR agonism / PR antagonism,9.4
same,Antagonist rel to RU486 (%),"[2]; T47D cells, stimulant R5020",240%
same,pIC50,"[2]; T47D cells, stimulant R5020, read-out: IC50 Average of 2 expts",9.30
same,pIC50,"[2]; Table 2 summary, read-out: PR antagonism (IC50)",9.30
same,Agonist rel to R5020 (%),[3],7.8%
same,pEC50,"[3]; stimulant R5020, read-out: EC50",8.32
same,PR regulated genes amphiregulin (AREG) and RANKL in mammary glands,[4]; higher dose,significantly inhibited
same,PR regulated genes amphiregulin (AREG) and RANKL in mammary glands,[4]; lower doses,upregulated in a moderate fashion
same,E2 regulated genes cyclin D1 and PS2 in mammary glands,[4]; treatment combined with E2,downregulated
same,ER-/PR balance vagina.: dose at which the dominance is seen,[5]; guinea pig,≧0.1 mg
same,Classification,[5]; guinea pig model,mesoprogestin
same,Uterine Weight at max. dose (10.mg/day s.c.),"[5]; guinea pig, 10 mg/day s.c.",1.13
same,ER-/PR balance vagina.,"[5]; guinea pig, at max. dose (10.mg/day s.c.)",PR-domin.
same,Ovary (CL),"[5]; guinea pig, at max. dose (10.mg/day s.c.), CL = corpora lutea",degenerated
same,ductal branching and terminal end buds in whole mount analysis,[6],dose dependently reduced
same,E2 stimulated uterine weight,[7]; 0.1 mg/kg,reduced by two fold
same,E2 stimulated uterine weight,[7]; 1.0 mg/kg,three fold
same,progestational activity (McPhail test),[8]; estradiol-primed immature female rabbit,active both as a progestin agonist and antagonist
same,antiprogestational activity (anti-McPhail test),[8]; immature female rabbit,active both as a progestin agonist and antagonist
